{"source": "patent US20090281040A1", "about": "“Methods For Treating Endoplasmic Reticulum (ER) Stress Disorders” (priority 2008, published 2009)", "key": {"WFS1-ATF6 complex": {"test_system": "WFS1-ATF6 complex", "experiment": "WFS1-ATF6 co-immunoprecipitation in INS-1 832/13 cells", "type": "cell-based, rat", "experimental": "Both WFS1 and ATF6 are transmembrane proteins localized to the ER. The association of WFS1 with ATF6 in INS-1 832/13 cells was examined. An anti-WFS1 antibody was used to immunoprecipitate (IP) WFS1 from INS-1 832/13 cells untreated (UT) or treated with the ER stress inducer DTT (1 mM) for 0.5 hr, 1.5 hr, or 3 hr. Immunoprecipitates were then subject to immunoblot (IB) analysis using anti-ATF6, anti-WFS1, and anti-actin antibodies. […] To confirm that the interaction between WFS1 and ATF6 is recovered post-stress, an anti-WFS1 antibody was used to immunoprecipiate (IP) WFS1 from INS-1 832/13 cells untreated (UT) or treated with the ER stress inducer DTT (1 mM) for 2 hr. The cells were then chased in normal media for 0 hr and 3 hr. Immunoprecipitates were subject to immunoblot (IB) analysis using anti-ATF6, anti-WFS1, and anti-actin antibodies. The relative amount of ATF6 protein was quantified using ImageJ software."}, "AATF mRNA [1]": {"test_system": "AATF mRNA", "experiment": "AATF mRNA expression by real-time PCR in cells treated with ER stress inducers", "type": "cell-based, rat; mouse", "settings": "for AATF mRNA expression: INS-1 832/13, neuro2A cells and mouse embryonic fibroblasts, 16 hr, TM 5 μg/ml, Tg 1 μM, MG132 2 μM, STR 0.05 and 0.01 μM", "experimental": "Cell culture and transfection of small interfering RNA. Rat insulinoma cells, INS-1 832/13, were a gift from Dr. Christopher Newgard (Duke University Medical Center). These cells were cultured in RPMI 1640 supplemented with 10% FBS. Mouse embryonic fibroblasts, COS7 cells, and Neuro2a cells were maintained in DMEM with 10% fetal bovine serum. Human neuroblastoma cells, SH-SY5Y cells, were cultured in DMEM/F12 with 10% fetal bovine serum.\n(§1) Real-time polymerase chain reaction. Total RNA was isolated from cells using RNeasy Mini Kit (Qiagen) and reverse transcribed using 1 μg of total RNA from cells with Oligo-dT primer. For the thermal cycle reaction, the iQ5 system (BioRad, Hercules, Calif.) was used at 95° C. for 10 min, 40 cycles at 95° C. for 10 sec, and at 55° C. for 30 sec.\nThe relative amount for each transcript was calculated by a standard curve of cycle thresholds for serial dilutions of cDNA samples and normalized to the amount of actin. The polymerase chain reaction (PCR) was done in triplicate for each sample, after which all experiments were repeated twice. The following sets of primers and Power SYBR Green PCR Master Mix (Applied Biosystems, Foster City, Calif.) were used for real-time PCR: […]"}, "Akt1 mRNA": {"test_system": "Akt1 mRNA", "experiment": "Akt1 mRNA expression by real-time PCR", "type": "cell-based, rat; mouse", "settings": "Tg 1 μM", "experimental": "as §1\n(§2) The relative amount for each transcript was calculated by a standard curve of cycle thresholds for serial dilutions of cDNA samples and normalized to the amount of actin. The polymerase chain reaction (PCR) was done in triplicate for each sample, after which all experiments were repeated twice. The following sets of primers and Power SYBR Green PCR Master Mix (Applied Biosystems, Foster City, Calif.) were used for real-time PCR:\nWhether Akt1 expression is increased by ER stress was examined. The expression levels of Akt1 mRNA were measured in the presence of ER stress in INS-1 832/13, neuro2A, and mouse embryonic fibroblasts."}, "ATF6": {"test_system": "ATF6", "experiment": "ATF6 protein level immunoblot in COS7 cells expressing ATF6-HA and WFS1-FLAG", "type": "cell-based", "settings": "MG132 15 μM, 3 hr", "experimental": "To investigate whether the decrease in ATF6 protein level is proteosome-dependent, COS7 cells expressing ATF6-HA or ATF6-HA and WFS1-FLAG were either untreated (UT) or treated with the proteosome inhibitor MG132 (15 μM) for 3 hr. Lysates were immunoblotted with anti-HA, anti-FLAG, and anti-actin antibodies."}, "AATF mRNA [2]": {"test_system": "AATF mRNA", "experiment": "AATF mRNA by real-time PCR in wild-type, Ire1α−/− and Perk−/− mouse embryonic fibroblasts", "type": "cell-based", "settings": "for attenuation of the induction of AATF: Ire1α−/− cells versus wild-type; for induction of AATF: Perk−/− mouse embryonic fibroblasts versus wild-type", "experimental": "as §1, §2\nThe pathway by which AATF expression is regulated was investigated. IRE 1 and PERK are ER-resident protein kinases and regulators of the UPR. The expression levels of AATF were measured by real-time PCR in Ire1α^−/− and Perk^−/− mouse embryonic fibroblasts under ER stress conditions. […] To confirm this, Perk^−/− mouse embryonic fibroblasts were transfected with PERK expression plasmid, then AATF gene expression was measured. Chop expression was also measured as a control. PERK expression could restore both AATF and Chop expression (FIG. 2D)."}, "Chop mRNA": {"test_system": "Chop mRNA", "experiment": "Chop mRNA by real-time PCR in wild-type and Perk−/− mouse embryonic fibroblasts", "type": "cell-based", "set-up": "dose or concentration left out as unconfirmed", "settings": "Salubrinal, 16 hr", "experimental": "as §1, §2\nIt is established that PERK-mediated eIF2α phosphorylation has role in the up-regulation of its target genes (see, e.g., Harding, H. P., et al., Mol Cell 6, 1099-1108 (2000); Harding et al., Nature 397, 271-274 (1999)). Whether eIF2α phosphorylation could increase AATF expression was determined. […]"}, "eIF2α phosphorylation": {"test_system": "eIF2α phosphorylation", "experiment": "eIF2α phosphorylation immunoblot in mouse embryonic fibroblasts", "type": "cell-based", "set-up": "dose or concentration left out as unconfirmed", "settings": "16 hr", "experimental": "(§3) Immunoblotting. Cells were lysed for 15 min on ice at 4° C. in ice-cold M-PER buffer (PIERCE, Rockford, Ill.) containing protease inhibitors. The lysates were then cleared by centrifuging the cells at 13,000 g. Lysates were normalized for total protein, separated by SDS-PAGE (15% gel or 5%-20% gradient gel), and transferred onto a polyvinylidene difluoride membrane. To detect human AATF protein, anti-AATF antibody from Bethyl (Montgomery, Tex.) was used. To detect rat AATF protein, a rabbit anti-AATF antibody generated using a peptide, RPREADPEADPEEATR, was used. […]\nIt is established that PERK-mediated eIF2α phosphorylation has role in the up-regulation of its target genes (see, e.g., Harding, H. P., et al., Mol Cell 6, 1099-1108 (2000); Harding et al., Nature 397, 271-274 (1999)). Whether eIF2α phosphorylation could increase AATF expression was determined. Wild-type and Perk^−/− mouse fibroblasts were treated with salubrinal, a compound that increases eIF2α phosphorylation (see Boyce, M., et al., Science (New York, N.Y. 307, 935-939 (2005)), then AATF expression was measured, with Chop expression as a control. AATF expression, as well as Chop expression, was increased by salubrinal treatment in both wild-type and Perk^−/− mouse embryonic fibroblasts (FIG. 2C, upper panel). Immunoblot confirmed that eIF2α phosphorylation levels were increased by salubrinal (FIG. 2C, lower panel)."}, "AATF": {"test_system": "AATF", "experiment": "AATF immunoblot of cytoplasmic and nuclear extracts from INS-1 832/13 cells", "type": "cell-based, rat", "settings": "Tg 1 μM", "experimental": "Immunoblotting. Cells were lysed for 15 min on ice at 4° C. in ice-cold M-PER buffer (PIERCE, Rockford, Ill.) containing protease inhibitors. The lysates were then cleared by centrifuging the cells at 13,000 g. Lysates were normalized for total protein, separated by SDS-PAGE (15% gel or 5%-20% gradient gel), and transferred onto a polyvinylidene difluoride membrane. To detect human AATF protein, anti-AATF antibody from Bethyl (Montgomery, Tex.) was used. To detect rat AATF protein, a rabbit anti-AATF antibody generated using a peptide, RPREADPEADPEEATR, was used. Anti-actin and anti-myc (9E10) antibodies were purchased from Sigma (St. Louis, Mo.); anti-eIF2α was purchased from Santa Cruz Biotechnology (Santa Cruz, Calif.); anti-phospho-eIF2α, anti-Akt, anti-Akt1, anti-phospho-Akt, anti-Creb, anti-tubulin, and anti-caspase-3 antibodies were purchased from Cell Signaling (Danvers, Mass.)."}, "Akt": {"test_system": "Akt", "experiment": "Akt, Akt1 and phosphorylated Akt immunoblot in INS-1 832/13 cells", "type": "cell-based, rat", "settings": "INS1 832/13 cells, Tg 1 μM", "experimental": "as §3\nIt has been proposed that phosphorylation of Akt is important in protecting cells from apoptosis (Srinivasan, S., et al., Diabetes 54, 968-975 (2005). As shown in FIG. 4C (right panel), phosphorylation level of Akt was increased up to 8 hr after treatment, but decreased at 24 hr. To study the relationship between AATF suppression and Akt phosphorylation, AATF expression was suppressed using siRNA directed against AATF in INS-1 832/13 cells and the cells were treated with thapsigargin for 0, 3, and 8 hr, then Akt expression and Akt phosphorylation levels were measured by immunoblot. Both Akt expression and Akt phosphorylation levels were decreased by AATF siRNA (FIG. 4D). […] INS-1 832/13 cells were infected with the virus and Akt1 expression levels were measured."}}, "note": "Where a SMILES comes first, the peptide text is derived from it. The star is where a group is joined. Cbz = O=C(OCc1ccccc1)*", "data": [{"compound": "O[C@@H](CS)[C@@H](O)CS", "note": "[DTT]", "values": [{"measurement": "interaction of ATF6 and WFS1 post-stress", "setting": "WFS1-ATF6 complex; DTT 1 mM 2 hr, then 3 hour chase in normal media", "result": "began to recover"}, {"measurement": "dissociation of ATF6 from WFS1", "setting": "WFS1-ATF6 complex; DTT 1 mM, 3 hours post-treatment, time-dependent", "result": "almost complete dissociation"}]}, {"compound": "CN[C@@H]1C[C@H]2O[C@@](C)([C@@H]1OC)n1c3ccccc3c3c4c(c5c6ccccc6n2c5c31)C(=O)NC4", "note": "[staurosporin]", "values": [{"measurement": "AATF mRNA expression", "setting": "AATF mRNA [1]", "result": "not"}, {"measurement": "increase of Akt1 mRNA expression", "setting": "Akt1 mRNA; INS-1 832/13, neuro2A and mouse embryonic fibroblasts, 16 hr, TM 5 μg/ml, MG132 2 μM, STR 0.05 and 0.01 μM", "result": "not"}]}, {"compound": "CC(C)C[C@@H](C=O)NC(=O)[C@H](CC(C)C)NC(=O)[C@H](CC(C)C)NC(=O)OCc1ccccc1", "note": "[MG132] (Cbz-Leu-Leu-Leu-aldehyde)", "values": [{"measurement": "AATF mRNA expression", "setting": "AATF mRNA [1]", "result": "up-regulated"}, {"measurement": "ATF6 protein levels", "setting": "ATF6", "result": "almost full recovery"}]}, {"compound": "tunicamycin", "values": [{"measurement": "AATF mRNA expression", "setting": "AATF mRNA [1]", "result": "up-regulated"}, {"measurement": "attenuation of the induction of AATF", "setting": "AATF mRNA [2]", "result": "not"}, {"measurement": "induction of AATF", "setting": "AATF mRNA [2]", "result": "attenuated"}]}, {"compound": "O=C(/C=C/c1ccccc1)NC(NC(=S)Nc1cccc2cccnc12)C(Cl)(Cl)Cl", "note": "(centres unmarked) [salubrinal]", "values": [{"measurement": "AATF expression", "setting": "AATF mRNA [2]; wild-type and Perk−/− mouse embryonic fibroblasts, Salubrinal 75 nM, 16 hr", "result": "increased"}, {"measurement": "Chop expression", "setting": "Chop mRNA", "result": "increased"}, {"measurement": "eIF2α phosphorylation levels", "setting": "eIF2α phosphorylation", "result": "increased"}]}, {"compound": "C/C=C(/C)C(=O)O[C@H]1C(C)=C2[C@H]([C@@H]1OC(=O)CCCCCCC)[C@@](C)(OC(C)=O)C[C@H](OC(=O)CCC)[C@@]1(O)[C@H]2OC(=O)[C@@]1(C)O", "note": "[thapsigargin]", "values": [{"measurement": "AATF mRNA expression", "setting": "AATF mRNA [1]", "result": "up-regulated"}, {"measurement": "AATF mRNA expression, time course", "setting": "AATF mRNA [1]; INS-1 832/13 cells, Tg 0.5 μM, indicated times", "result": "continued to increase up to 24 hr"}, {"measurement": "AATF protein expression in cytoplasmic and nuclear extracts", "setting": "AATF", "result": "up-regulated"}, {"measurement": "attenuation of the induction of AATF", "setting": "AATF mRNA [2]", "result": "not"}, {"measurement": "induction of AATF", "setting": "AATF mRNA [2]", "result": "attenuated"}, {"measurement": "time of peak Akt1 mRNA expression during ER stress", "setting": "Akt1 mRNA; INS1 832/13 cells", "result": 24, "unit": "h"}, {"measurement": "phosphorylation level of Akt", "setting": "Akt; at 24 hr", "result": "decreased"}, {"measurement": "phosphorylation level of Akt", "setting": "Akt; up to 8 hr after treatment", "result": "increased"}]}]}
